Each structure is given as a SMILES string.

Chain of Human CARM1 (PRMT4) (Q86X55 other isoform, or with tags, fused parts or gaps isoform Q86X55-1): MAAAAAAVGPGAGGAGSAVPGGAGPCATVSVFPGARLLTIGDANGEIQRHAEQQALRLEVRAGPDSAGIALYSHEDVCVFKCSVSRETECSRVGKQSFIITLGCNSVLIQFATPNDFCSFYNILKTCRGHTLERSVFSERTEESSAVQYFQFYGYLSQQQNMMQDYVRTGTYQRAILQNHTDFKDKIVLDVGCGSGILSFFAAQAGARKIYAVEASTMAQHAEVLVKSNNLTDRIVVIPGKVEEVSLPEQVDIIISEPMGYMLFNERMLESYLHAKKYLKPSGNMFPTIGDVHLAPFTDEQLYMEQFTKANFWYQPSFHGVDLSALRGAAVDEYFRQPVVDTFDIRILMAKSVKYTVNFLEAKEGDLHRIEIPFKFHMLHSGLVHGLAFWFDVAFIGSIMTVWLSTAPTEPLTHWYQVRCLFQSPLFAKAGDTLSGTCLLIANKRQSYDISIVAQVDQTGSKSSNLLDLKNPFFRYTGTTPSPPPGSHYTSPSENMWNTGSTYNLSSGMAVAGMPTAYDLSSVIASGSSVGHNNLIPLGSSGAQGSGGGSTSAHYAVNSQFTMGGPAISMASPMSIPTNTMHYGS

This test addresses Human CARM1 (PRMT4) (Homo sapiens (Human), UniProt Q86X55). The experiment in a line: CARM1 enzyme assay on peptide substrate (3H-SAM Flashplate). To be noted: Biochemical potencies, classification codes; read-out: Biochem IC50. From the text: S-adenosylmethionine (SAM), S-adenosylhomocysteine (SAH), bicine, Tween20, dimethylsulfoxide (DMSO), bovine skin gelatin (BSG), sodium butyrate and Tris(2-carboxyethyl)phosphine hydrochloride solution (TCEP) were purchased from Sigma-Aldrich at the highest level of purity possible. ^3H-SAM was purchase from American Radiolabeled Chemicals with a specific activity of 80 Ci/mmol. 384-well streptavidin Flashplates were purchased from PerkinElmer.
Peptide representative of human histone H3 residues 16-30 was synthesized with an N-terminal linker-affinity tag motif and a C-terminal amide cap by 21st Century Biochemicals. […] The sequence was Biot-Ahx-[…]-amide and contained a monomethylated arginine at position 26 (SEQ ID NO.:1).
The gene sequence encoding isoform1 containing a deletion of amino acids 539-561 was amplified subsequently and subcloned into pFastBacMam (Viva Biotech).
Recombinant baculovirus were generated according to Bac-to-Bac kit instructions (Life Technologies). Protein over-expression was accomplished by infecting exponentially growing HEK 293F cell culture at 1.3×10^6cell/ml with virus (MOI=10) in the presence of 8 mM sodium butyrate. Infections were carried out at 37° C. for 48 hours, harvested by centrifugation, and stored at −80° C. for purification.
Expressed full-length human Flag- and His-tagged CARM1 protein was purified from cell paste by anti-flag M2 affinity chromatography with resin equilibrated with buffer containing 20 mM Tris, 150 mM NaCl, 5% glycerol, pH 7.8. Column was washed with 500 mM NaCl in buffer A and Flag-CARM1-His was eluted with 200 ug/ml FLAG peptide in buffer A. Pooled fractions were dialyzed in 20 mM Tris, 150 mM NaCl, 5% glycerol and 1 mM DTT, pH 7.8.
The assays were all performed in a buffer consisting of 20 mM Bicine (pH=7.6), 1 mM TCEP, 0.005% BSG, and 0.002% Tween 20, prepared on the day of use. Compounds in 100% DMSO (1 ul) were spotted into a polypropylene 384-well V-bottom plates (Greiner) using a Platemate Plus outfitted with a 384-channel head (Thermo Scientific). DMSO (1 ul) was added to Columns 11, 12, 23, 24, rows A-H for the maximum signal control and 1 ul of SAH, a known product and inhibitor of CARM1, was added to columns 11, 12, 23, 24, rows I-P for the minimum signal control. A cocktail (40 ul) containing the CARM1 enzyme was added by Multidrop Combi (Thermo-Fisher). The compounds were allowed to incubate with CARM1 for 30 min at room temperature, then a cocktail (10 ul) containing ^3H-SAM and peptide was added to initiate the reaction (final volume=51 ul). The final concentrations of the components were as follows: CARM1 was 0.25 nM, ^3H-SAM was 30 nM, peptide was 250 nM, SAH in the minimum signal control wells was 1 mM, and the DMSO concentration was 2%. The assays were stopped by the addition of non-radiolabeled SAM (10 ul) to a final concentration of 300 uM, which dilutes the ^3H-SAM to a level where its incorporation into the peptide substrate is no longer detectable. 50 ul of the reaction in the 384-well polypropylene plate was then transferred to a 384-well Flashplate and the biotinylated peptides were allowed to bind to the streptavidin surface for at least 1 hour before being washed once with 0.1% Tween20 in a Biotek ELx405 plate washer. The plates were then read in a PerkinElmer TopCount plate reader to measure the quantity of ^3H-labeled peptide bound to the Flashplate surface, measured as disintegrations per minute (dpm) or alternatively, referred to as counts per minute (cpm).
where dpm=disintegrations per minute, cmpd=signal in assay well, and min and max are the respective minimum and maximum signal controls.
where top and bottom are the normally allowed to float, but may be fixed at 100 or 0 respectively in a 3-parameter fit. The Hill Coefficient normally allowed to float but may also be fixed at 1 in a 3-parameter fit. Y is the % inhibition and X is the compound concentration.
With `CNCC(O)COc1cccc(-c2nc(N[C@H]3C[C@@](C)(OC)C3)c(C)c(-c3c(C)noc3C)n2)c1` (stereo partly shown) [Example 19-3], the IC50 is less than 100 nM.
Consider `CNCC(O)COc1cccc(-c2nc(NCCOC)cc(-c3c(C)noc3C)n2)c1` (stereo not shown) [Example 20-1], for which the IC50 was less than 100 nM.
As to `CCN1CCN(c2cc(-c3c(C)noc3C)nc(-c3cccc(OCC(O)CNC)c3)n2)CC1` (stereo not shown) [Example 20-1a], the IC50 was less than 100 nM.
Regarding `CNCC(O)COc1cccc(-c2nc(-c3c(C)noc3C)c(C)c(N(C)[C@H]3C[C@@](C)(OC)C3)n2)c1` (stereo partly shown) [Example 20-3], the half-maximal inhibitory concentration (IC50) is less than 100 nM.
`CNCC(O)COc1cccc(-c2nc(Nc3cncnc3)cc(-c3c(C)noc3C)n2)c1` (stereo not shown) [Example 21-1a]: the half-inhibitory concentration (IC50) was less than 100 nM.
Turning to `CNCC(O)COc1cc(Cl)cc(-c2nc(NC3CCN(CC(F)F)CC3)c(C)c(-c3c(C)noc3C)n2)c1` (stereo not shown) [Example 21-3], the IC50 is less than 100 nM.
As to `CNCC(O)COc1cccc(-c2nc(NC(C)C)cc(N(C)C3CCOCC3)n2)c1` (stereo not shown) [Example 22-1], the IC50 was less than 100 nM.
`CNCC(O)COc1cc(Cl)cc(-c2nc(NC3CCN(C4CC4)CC3)c(C)c(-c3c(C)noc3C)n2)c1` (stereo not shown) [Example 22-3]: the IC50 was less than 100 nM.
For the compound `CNCC(O)COc1cccc(-c2nc(-c3cccc(C#N)c3)cc(N(C)CCC#N)n2)c1` (stereo not shown) [Example 24-1], the IC50 is less than 100 nM.
As to `CCOC(=O)N1CCOC[C@H]1CNc1nc(-c2cc(OC[C@@H](O)CNC)ccc2Cl)nc(-c2c(C)noc2C)c1C` [Example 24-3], the IC50 is less than 100 nM.
Take `CNCC(O)COc1cc(OC)cc(-c2nc(C3CC3)cc(N(C)C3CCOCC3)n2)c1` (stereo not shown) [Example 25-1]: the concentration for half-maximal inhibition (IC50) is less than 100 nM.
Take `CCOC(=O)N1CCOC[C@H]1CNc1nc(-c2cc(OC[C@H](O)CNC)ccc2Cl)nc(-c2c(C)noc2C)c1C` [Example 25-3]: the IC50 was less than 100 nM.
For the compound `CNCC(O)COc1cccc(-c2nc(N[C@H]3CCOC3)c(C)c(N3CCOCC3)n2)c1` (stereo partly shown) [Example 26-1], the IC50 is less than 100 nM.
For the compound `CNC[C@H](O)COc1ccc(F)c(-c2nc(NC3CCN(C(=O)OC)CC3)c(C)c(-c3c(C)noc3C)n2)c1` [Example 26-3], the IC50 was less than 100 nM.
Consider `CNCC(O)COc1cccc(-c2nc(NC)cc(-c3c(C)noc3C)n2)c1` (stereo not shown) [Example 27-1a], for which the IC50 is less than 100 nM.
On to `CCOC(=O)N1CCCCC1CNc1nc(-c2cc(OC[C@@H](O)CNC)ccc2Cl)nc(-c2c(C)noc2C)c1C` (stereo partly shown) [Example 27-3], for which the IC50 is less than 100 nM.
Consider `CCOC(=O)N1CCN(c2cc(-c3c(C)noc3C)nc(-c3cccc(OCC(O)CNC)c3)n2)CC1` (stereo not shown) [Example 28-1a], for which the IC50 was less than 100 nM.
`CCOC(=O)N1CCCCC1CNc1nc(-c2cc(OC[C@H](O)CNC)ccc2Cl)nc(-c2c(C)noc2C)c1C` (stereo partly shown) [Example 28-3]: the half-inhibitory concentration (IC50) is less than 100 nM.
The same measure for `CNCC(O)COc1cccc(-c2nc(NCCOC)cc(-c3cc4ccccc4o3)n2)c1` (stereo not shown) [Example 29-1]: less than 100 nM.
As for `CNCC(O)COc1cccc(-c2nc(-c3c(C)noc3C)cc(N3CCNC(C(=O)O)C3)n2)c1` (stereo not shown) [Example 29-1a], the figure is less than 100 nM; as for `CNCC(O)COc1ccc(Cl)c(-c2nc(NC3CCOCC3)c(C)c(-c3c(C)noc3C)n2)c1` (stereo not shown) [Example 29-3], less than 100 nM; as for `CNCC(O)COc1cccc(-c2nc(-c3c(C)noc3C)cc(N3CCN(C4CC4)CC3)n2)c1` (stereo not shown) [Example 30-1a], less than 100 nM.
The same measure for `CNCC(O)COc1ccc(Cl)c(-c2nc(NCC3CCOC3)c(C)c(-c3c(C)noc3C)n2)c1` (stereo not shown) [Example 30-3]: less than 100 nM; for `CNCC(O)COc1cccc(-c2nc(NC3CCOC3)cc(-c3c(C)noc3C)n2)c1` (stereo not shown) [Example 31-1a]: less than 100 nM; for `CNCC(O)COc1ccc(Cl)c(-c2nc(NCC3CCCCO3)c(C)c(-c3c(C)noc3C)n2)c1` (stereo not shown) [Example 31-3]: less than 100 nM.
As for `CNCC(O)COc1cccc(-c2nc(-c3cccnc3)cc(N(C)C3CCOCC3)n2)c1` (stereo not shown) [Example 32-1], the concentration for half-maximal inhibition (IC50) is less than 100 nM.
Take `CNCC(O)COc1cccc(-c2nc(N[C@H]3CC[C@H](O)CC3)cc(-c3c(C)noc3C)n2)c1` (stereo partly shown) [Example 32-1a]: the IC50 is less than 100 nM.
Turning to `CNC[C@@H](O)COc1cccc(-c2nc(NC3CCN(C(=O)OC)C(C)C3)c(C)c(-c3c(C)noc3C)n2)c1` (stereo partly shown) [Example 32-3], the IC50 is less than 100 nM.
As to `CNCC(O)COc1cccc(-c2nc(NC3CCOCC3)cc(-c3c(C)noc3C)n2)c1` (stereo not shown) [Example 33-1], the IC50 was less than 100 nM.
Consider `CNCC(O)COc1cccc(-c2nc(N[C@H]3CC[C@@H](O)CC3)cc(-c3c(C)noc3C)n2)c1` (stereo partly shown) [Example 33-1a], for which the IC50 was less than 100 nM.
Turning to `CNC[C@H](O)COc1cccc(-c2nc(NC3CCN(C(=O)OC)C(C)C3)c(C)c(-c3c(C)noc3C)n2)c1` (stereo partly shown) [Example 33-3], the IC50 is less than 100 nM.
`CNCC(O)COc1cccc(-c2nc(NCCOC)cc(-c3cnn(CC(C)C)c3)n2)c1` (stereo not shown) [Example 34-1]: the IC50 is less than 100 nM.
With `CNCC(O)COc1cccc(-c2nc(-c3c(C)noc3C)c(C)c(N(C)C3CCOCC3)n2)c1` (stereo not shown) [Example 34-1a], the IC50 was less than 100 nM.
As for `CNCC(O)COc1cccc(-c2nc(-c3c(C)noc3C)c(C)c(N3CCn4ccnc4C3)n2)c1` (stereo not shown) [Example 34-3], the figure is less than 100 nM; as for `CNCC(O)COc1cccc(-c2nc(-c3c(C)noc3C)cc(N3CCNC(C)C3)n2)c1` (stereo not shown) [Example 35-1a], less than 100 nM; as for `CNCC(O)COc1cccc(-c2nc(-c3c(C)noc3C)c(C)c(N3Cc4cccnc4C3)n2)c1` (stereo not shown) [Example 35-3], less than 100 nM.
On to `CNCC(O)COc1cccc(-c2nc(N3CCOCC3)cc(N(C)C3CCOCC3)n2)c1` (stereo not shown) [Example 36-1], for which the IC50 was less than 100 nM.
As for `CNCC(O)COc1cccc(-c2nc(-c3c(C)noc3C)cc(N3CCNC(C)(C)C3)n2)c1` (stereo not shown) [Example 36-1a], the figure is less than 100 nM; as for `CNCC(O)COc1ccc(Cl)c(-c2nc(O[C@H]3CCN(C(=O)OC)[C@@H](C)C3)c(C)c(-c3c(C)noc3C)n2)c1` (stereo partly shown) [Example 36-3], less than 100 nM; as for `CNCC(O)COc1cccc(-c2nc(N3CCOCC3)c(C)c(N(C)[C@H]3CCOC3)n2)c1` (stereo partly shown) [Example 37-1], less than 100 nM.
As for `CNCC(O)COc1ccc(Cl)c(-c2nc(NC3CC4(CCN(C(=O)OC)CC4)C3)c(C)c(-c3c(C)noc3C)n2)c1` (stereo not shown) [Example 37-3], the IC50 was less than 100 nM.
As for `CNCC(O)COc1cccc(-c2nc(-c3c(C)noc3C)cc(N3CCN(C(C)=O)[C@@H](C)C3)n2)c1` (stereo partly shown) [Example 38-1a], the figure is less than 100 nM.
`CNCC(O)COc1ccc(Cl)c(-c2nc(NC3CC(O)(C(F)(F)F)C3)c(C)c(-c3c(C)noc3C)n2)c1` (stereo not shown) [Example 38-3]: the IC50 was less than 100 nM.
`CNCC(O)COc1cccc(-c2nc(-c3c(C)noc3C)cc(N3CCN(C(C)=O)C[C@H]3C)n2)c1` (stereo partly shown) [Example 39-1a]: the IC50 is less than 100 nM.
As for `CNCC(O)COc1ccc(Cl)c(-c2nc(N[C@H]3CCC[C@@H](O)C3)c(C)c(-c3c(C)noc3C)n2)c1` (stereo partly shown) [Example 39-3], the IC50 was less than 100 nM.
As to `CNCC(O)COc1cccc(-c2nc(-c3c(C)noc3C)cc(N3CCN[C@@H](C)C3)n2)c1` (stereo partly shown) [Example 40-1a], the IC50 was less than 100 nM.
On to `CNC[C@@H](O)COc1ccc(F)c(-c2nc(NC3CCN(C(=O)OC)CC3)c(C)c(-c3c(C)noc3C)n2)c1` [Example 40-3], for which the 50% inhibitory concentration (IC50) is less than 100 nM.
Turning to `CNCC(O)COc1cccc(-c2nc(-c3cnn(CC(C)C)c3)cc(N(C)CCC#N)n2)c1` (stereo not shown) [Example 41-1], the IC50 was less than 100 nM.
For `CNCC(O)COc1cccc(-c2nc(N[C@H]3C[C@@H](O)C3)cc(-c3c(C)noc3C)n2)c1` (stereo partly shown) [Example 41-1a], the IC50 is less than 100 nM.

(Values after patent US20230279020A9, “CARM1 INHIBITORS AND USES THEREOF” (Epizyme, Inc., priority 2013, published 2023).)
